Assay results published in article PMC7697888, “Comprehensive Set of Tertiary Complex Structures and Palmitic Acid Binding Provide Molecular Insights into Ligand Design for RXR Isoforms” (International Journal of Molecular Sciences, 2020).
No end group written: not given here. *: point of attachment. Biotin = O=C1N[C@H]2[C@H](CS[C@H]2CCCCC(=O)*)N1

Experiments:
all RXR subtypes = tested on: all RXR subtypes; design: method as in PMID 9205071, PMID 26030625, PMID 27151148; conditions: read-out: EC50 activating all RXR subtypes; cited from earlier work
RXR = experiment: Gal4 hybrid reporter gene assays, competition with bexarotene / antagonist UVI3003 (isoform not specified); assay type: cell-based, human; conditions: UVI3003 at 1 µM; MA, PA and SA at 200 µM
Method: The Gal4 hybrid reporter gene assays for RXRα, RXRβ and RXRγ were performed as described previously using the Gal4-fusion receptor plasmids pFA-CMV-hRXRα-LBD (NR2B1, UniProt entry: P19793, aa 225–462), pFA-CMV-hRXRβ-LBD (NR2B2, UniProt entry: P28702-1, aa 294–533) and pFA-CMV-hRXRγ-LBD (NR2B3, UniProt entry: P48443-1, aa 229–463), which code for the hinge region and LBD of the canonical RXR isoform. pFR-Luc (Stratagene, San Diego, CA, USA) as the reporter plasmid and pRL-SV40 (Promega, Madison, WI, USA) as the internal control were used. HEK293T cells were grown in DMEM high-glucose medium (supplemented with 10% fetal calf serum (FCS), sodium pyruvate (1 mM), penicillin (100 U/mL) and streptomycin (100 μg/mL)) at 37 °C and 5% CO2, and seeded in 96-well plates (3.0 × 10^4 cells/well) on the day before transfection. Right before transfection, medium was changed to Opti-MEM without supplements and cells were transiently transfected using the Lipofectamine LTX reagent (Invitrogen, Carlsbad, CA, USA) according to the manufacturer’s protocol with pFR-Luc (Stratagene), pRL-SV40 (Promega) and the respective pFA-CMV-hRXR-LBD clone. After 5 h of incubation, medium was changed to Opti-MEM (supplemented with penicillin (100 U/mL) and streptomycin (100 μg/mL)) additionally containing 0.1% DMSO and the respective test compounds or 0.1% DMSO alone as the untreated control. After overnight incubation (12–14 h), cells were assayed for luciferase activity using the Dual-Glo luciferase assay system (Promega) according to the manufacturer’s protocol on a Tecan Spark M10 luminometer (Tecan Deutschland GmbH, Crailsheim, Germany). Each sample was tested in at least three biologically independent repeats in duplicates. Data were normalized for transfection efficiency and cell growth by division of firefly luciferase data by Renilla luciferase data and multiplying by 1000 to obtain relative light units (RLUs). Fold activation denotes the mean RLU of test compounds at a respective concentration divided by the mean RLU of untreated control. […]

RXRα = tested on: RXRα; design: method as in PMID 15073272; conditions: cited from earlier work
[1] = biological target: T1, RXRγ ligand-binding domain (NR2B3, aa 233–463) (human, UniProt P48443 233-463); experiment: crystal structure; sitting drop vapor diffusion at 20 °C; RXR LBD (10–13 mg/mL) with GRIP-1 peptide and palmitic acid (carried over from E. coli for RXRα, exogenously added for RXRβ and RXRγ); conditions: both partners purified
T1 construct: Cloned in pNIC28-Bsa4; Crystallised with exogenously added palmitic acid; also called RXRγ LBD; not shown: histidine tag, N-terminal, cleaved
T1 sequence (looked up): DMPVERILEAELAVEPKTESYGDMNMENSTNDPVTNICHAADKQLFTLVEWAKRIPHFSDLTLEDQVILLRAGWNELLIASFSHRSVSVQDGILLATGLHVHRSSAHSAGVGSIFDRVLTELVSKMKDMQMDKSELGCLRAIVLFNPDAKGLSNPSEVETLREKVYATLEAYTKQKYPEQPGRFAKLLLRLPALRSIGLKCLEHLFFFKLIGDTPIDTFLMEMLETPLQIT

[2] = biological target: T2, RXRα ligand-binding domain (NR2B1, aa 223–462) (human, UniProt P19793 223-462); experiment: as above; conditions: both partners purified
T2 construct: Cloned in pNIC28-Bsa4; Palmitic acid carried over from E. coli sat in the ligand pocket in the crystal; also called RXRα LBD; retinoid X receptor α; not shown: histidine tag, N-terminal, cleaved
T2 sequence (looked up): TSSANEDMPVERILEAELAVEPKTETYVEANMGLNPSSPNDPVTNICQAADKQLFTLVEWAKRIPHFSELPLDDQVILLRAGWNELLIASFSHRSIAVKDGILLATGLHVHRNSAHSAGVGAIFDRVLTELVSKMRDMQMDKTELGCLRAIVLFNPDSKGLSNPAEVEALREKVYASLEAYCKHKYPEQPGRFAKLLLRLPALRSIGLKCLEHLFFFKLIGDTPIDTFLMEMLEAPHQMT

[3] = biological target: T3, RXRβ ligand-binding domain (NR2B2, aa 298–533) (human, UniProt P28702 298-533); experiment: as above; conditions: both partners purified
T3 construct: Cloned in pNIC28-Bsa4; Crystallised with exogenously added palmitic acid; also called RXRβ LBD; not shown: histidine tag, N-terminal, cleaved
T3 sequence (looked up): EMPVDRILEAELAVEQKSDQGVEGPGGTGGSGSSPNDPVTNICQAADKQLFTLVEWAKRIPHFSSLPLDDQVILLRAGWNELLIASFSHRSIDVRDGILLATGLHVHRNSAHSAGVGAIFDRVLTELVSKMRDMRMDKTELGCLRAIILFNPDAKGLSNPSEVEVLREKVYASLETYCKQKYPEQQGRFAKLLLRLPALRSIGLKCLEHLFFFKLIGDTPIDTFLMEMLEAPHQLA

[4] = biological target: T4, sGFP-RXRα LBD (aa 225–462) (human, UniProt P19793 225-462); experiment: AlphaScreen or HTRF; 12 nM sGFP-RXRα LBD (acceptor), 12 nM biotin-SRC-1 peptide on terbium cryptate-streptavidin (donor); 25 mM HEPES pH 7.5, 150 mM KF, 5% glycerol, 0.1% CHAPS, 5 mM DTT, 1% DMSO; 2 h at room temperature; with myristic, palmitic or stearic acid at varying concentrations, with or without 0.3 µM bexarotene; SR11237 as positive control; conditions: both partners purified
T4 construct: also called recombinant RXRα LBD fused to N-terminal superfolder green fluorescent protein; source: recombinant; not shown: superfolder green fluorescent protein (sGFP), N-terminal, kept
T4 sequence (looked up): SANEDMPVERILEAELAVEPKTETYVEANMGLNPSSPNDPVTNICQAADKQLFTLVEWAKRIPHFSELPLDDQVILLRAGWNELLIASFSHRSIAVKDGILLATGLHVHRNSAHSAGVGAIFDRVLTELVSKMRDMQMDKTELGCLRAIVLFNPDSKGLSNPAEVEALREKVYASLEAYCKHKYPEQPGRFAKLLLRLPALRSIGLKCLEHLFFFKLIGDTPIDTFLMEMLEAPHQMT

CC1=C(/C=C/C(C)=C\C=C\C(C)CC(=O)O)C(C)(C)CCC1 (stereo not drawn) [9-cis-13,14-dihydroretinoic acid]
EC50 (all RXR subtypes): ~0.1 µM

CC1=C(/C=C/C(C)=C\C=C\C(C)=C\C(=O)O)C(C)(C)CCC1 [9-cis-retinoic acid]
EC50 (all RXR subtypes): ~0.1 µM

CCCCCOc1cc2c(cc1-c1cc(/C=C/C(=O)O)ccc1O)C(C)(C)CCC2(C)C [UVI3003, reference compound]
reversal of RXR agonistic effect of MA, PA and SA (RXR): fully reversed

CCCCC/C=C\C/C=C\C/C=C\C/C=C\CCCC(=O)O [arachidonic acid]
EC50 (RXRα): ~10 µM

CC/C=C\C/C=C\C/C=C\C/C=C\C/C=C\C/C=C\CCC(=O)O [docosahexaenoic acid]
EC50 (RXRα): ~10 µM

B1: glucocorticoid receptor interacting protein 1 (GRIP-1) co-regulator peptide (peptide)
peptide: KHKILHRLLQDSSY
notes: NCOA2/TIF2) with an LxxLL box; last printed residue of the peptide; also called GRIP-1 peptide
binding result [1]: binds | binding result [2]: binds | binding result [3]: binds

B2: SRC-1-derived peptide (steroid receptor co-activator 1) (peptide)
peptide: Biotin-CPSSHSSLTERHKILHRLLQEGSPS
notes: NCOA1), contains the consensus motif LxxLL; Coupled through its biotin to terbium cryptate-streptavidin conjugate (FRET donor); source: bought: Eurogentec Deutschland GmbH; not shown: biotin, N-terminal, kept
binding result [4]: binds
